One data set concerns the target T1, Pancreatic Lipase (Sus scrofa, UniProt P00591).
T1 construct: purchased Sigma L-3126
T1 sequence (P00591 1-450): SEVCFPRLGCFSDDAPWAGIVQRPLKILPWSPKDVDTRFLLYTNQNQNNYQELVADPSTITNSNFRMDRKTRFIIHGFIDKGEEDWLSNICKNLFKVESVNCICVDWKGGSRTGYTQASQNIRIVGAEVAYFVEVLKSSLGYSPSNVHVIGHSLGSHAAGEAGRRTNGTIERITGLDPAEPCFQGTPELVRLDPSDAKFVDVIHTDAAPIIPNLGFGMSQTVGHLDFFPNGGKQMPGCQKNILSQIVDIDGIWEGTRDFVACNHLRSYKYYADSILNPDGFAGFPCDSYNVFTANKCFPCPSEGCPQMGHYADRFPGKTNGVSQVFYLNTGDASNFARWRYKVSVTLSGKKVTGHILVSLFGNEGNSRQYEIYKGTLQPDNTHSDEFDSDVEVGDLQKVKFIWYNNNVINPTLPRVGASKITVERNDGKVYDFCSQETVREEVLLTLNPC
As to the kind of experiment: Pancreatic lipase inhibition assay (p-nitro phenol palmitate substrate, 96-well). The following applies: for IC50: dose range 6.25 μM-200 μM, interpolated by linear regression; for inhibition at 100 µM / inhibition at 200 µM: pancreatic lipase, 37° C., OD 405 nm; for inhibition at 100 µM: compound 100 μM; for inhibition at 200 µM: compound 200 μM. In kind it is biochemical. Here is the method:
Preparation of test samples: Structures #2-#19 were dissolved in 1 mL DMSO to obtain a 10 mM stock solution, and were vortexed to dissolution and stored at 4° C. The various concentration of working samples were prepared in 0.2 M phosphate buffer, pH-8.0. This sample was used as test sample for all further assays.
Lipase assay: Lipase assay was performed by method described by Winkler and Stuckmann, 1979, with modification. (Winkler, U. K. & Stuckmann, M. Glycogen, hyaluronate, and some other polysaccharides greatly enhance the formation of exolipase by Serratia marcescens. J. Bacteriol. 138: 663-670 (1979)) Assay was designed, using a 96-well format. The substrate used in this assay was p-nitro phenol palmitate (Sigma, Cat No-N-2752). 4.5 mg of p-nitro phenol palmitate was dissolved in 200 μl of N,N-dimethyl formamide (Sigma, Cat No, D-4551) and volume made up to 10 ml with 0.1 M pH 8.0 phosphate buffer. Pancreatic Lipase (Sigma, Cat No. L-3126) sample was prepared by dissolving the enzyme in 0.1M phosphate buffer at a concentration of 5 mg/ml. The reaction mixture consisted of 150 μl substrate solution; 40 μl phosphate buffer (pH 8.0, 0.2 M) and 10 μl lipase solution. The reaction mixture was incubated at 37° C. and optical density was measured at 405 nm after incubation. Enzyme activity was presented in the form of international unit (IU).
Lipase activity: One enzyme unit of lipase is defined as that quantity releasing 1 nm of free phenol from the substrate (p-nitro phenol palmitate) per min per ml under the standard assay condition (Winkler and Stuckmann, 1979; Yadav R P, Saxena R K, Gupta R. Davidson W S., Purification and characterization of a region-specific lipase from Aspergillus terreus. Biotechnol. Appl. Biochem. (1998) 28, (243-249)). It is derived from standard graph of p-nitro phenol (Sigma, 104-8).
Lipase inhibition assay: Enzyme inhibition assay was performed in a dose dependent manner. The concentration of the synthetic analogs checked were 100 μM & 200 μM. The assay was similar to assay described above except 40 μl of test sample was used instead of phosphate buffer in control. Optical density was measured at 0 hr and following incubation at 37° C.
Enzyme Inhibition: Enzyme inhibition was presented in the term of relative activity and percentage inhibition simply on the basis of change in international unit (IU).
Preparation of test samples: Synthetic analogues were dissolved in 1 ml DMSO to obtain a 10 mM stock solution. The samples were vortexed to dissolution and stored at 4° C. The various concentration of working samples were prepared in O.2 M phosphate buffer, pH-8.0. This sample was used as test sample for all further assays.
Lipase inhibition assay: Enzyme inhibition assay was performed in a dose dependent manner. The concentration of the synthetic analogs checked were 6.25 μM-200 μM. The assay was similar to assay described above except 40 μl of test sample was used instead of phosphate buffer in control. Optical density was measured at 0 hr and following incubation at 37° C. The enzyme activity was measured in terms of international unit (IU).
Lipase activity: One enzyme unit of lipase is defined as that quantity releasing 1 nm of free phenol from the substrate (p-nitro phenol palmitate)/min per ml under standard assay conditions. It is derived from standard graph of p-nitro phenol (Sigma, 104-8)
Percent Inhibition: Enzyme inhibition was presented in the term of % inhibition simply on the basis of change in international unit (IU).
The value of IC50 was derived from linear regression. The value derived is based on interpolated data.

Results on 21 compounds are retold here after US7355055B2, “Compounds for treatment of lipase-mediated diseases” (Reliance Life Sciences Pvt. Ltd., priority 2005, dated 2008).

Structures can show the parent of a compound that is named as a salt.

In the case of `CCCCCCCCCCCC1=C(OC(=O)c2ccc(Br)cc2)C(=O)C=C(OC(=O)c2ccc(Br)cc2)C1=O` [Structure #10, 2,5-bis-(4-bromophenylcarbonyloxy)-3-undecyl-1,4-benzoquinone], at Pancreatic Lipase, the half-inhibitory concentration (IC50) was found to be 23.7 µM, the inhibition at 100 µM worked out at 87.5% and the inhibition at 200 µM stood at 97%.
Turning to `CCCCCCCCCCCC1=C(O)C(=O)C=C(O)C1=O` [Structure #20, 2,5-Dihydroxy-3-undecyl-p-benzoquinone, reference compound], on Pancreatic Lipase, testing at 100 µM gave an inhibition of 67.9% and the inhibition at 200 µM was found to be 69.5%.
As to `CCCCCCCCCCCC1=C(OC(=O)c2ccc(C)cc2)C(=O)C=C(OC(=O)c2ccc(C)cc2)C1=O` (as salt: Na) [Structure #12, 2,5-bis-(4-methylphenylcarbonyloxy)-3-undecyl-1,4-benzoquinone], the melting point was in the range of 94.8 to 96 °C.
For `CCCCCCCCCCCC1=C(OC(=O)c2ccccc2[N+](=O)[O-])C(=O)C=C(OC(=O)c2ccccc2[N+](=O)[O-])C1=O` [Structure #14, 2,5-bis-(2-nitrophenylcarbonyloxy)-3-undecyl-1,4-benzoquinone], on Pancreatic Lipase, 45.3 µM corresponded to half-maximal inhibition (IC50), testing at 100 µM gave an inhibition of 65.9% and 200 µM produced 61.3% inhibition.
Turning to `CCCCCCCCCCCC1=C(OC(=O)c2ccccc2I)C(=O)C=C(OC(=O)c2ccccc2I)C1=O` [Structure #19, 2,5-bis-(2-iodophenylcarbonyloxy)-3-undecyl-1,4-benzoquinone], at Pancreatic Lipase, the IC50 was determined as 129 µM, the inhibition at 100 µM came to 29.2% and testing at 200 µM gave an inhibition of 100%.
The corresponding values for `CCCCCCCCCCCC1=C(OC(=O)c2ccc(C)cc2)C(=O)C=C(OC(=O)c2ccc(C)cc2)C1=O` [Structure #12, 2,5-bis-(4-methylphenylcarbonyloxy)-3-undecyl-1,4-benzoquinone] are 41.3 µM, 88.5% and 99.1%.
For the compound `CCCCCCCCCCCC1=C(OC(=O)c2ccccc2I)C(=O)C=C(OC(=O)c2ccccc2I)C1=O` (as salt: Na) [Structure #19, 2,5-bis-(2-iodophenylcarbonyloxy)-3-undecyl-1,4-benzoquinone], the melting point was in the range of 64.2 to 67.6 °C.
In turn, `CCCCCCCCCCCC1=C(OC(=O)c2ccccc2)C(=O)C=C(OC(=O)c2ccccc2)C1=O` (as salt: Na) [Structure #15, 2,5-bis-(phenylcarbonyloxy)-3-undecyl-1,4-benzoquinone] returned a melting point of 98.2 to 99.6 °C.
Take `CCCCCCCCCCCC1=C(OC(=O)c2cccc(Cl)c2)C(=O)C=C(OC(=O)c2cccc(Cl)c2)C1=O` [Structure #7, 2,5-bis-(3-chlorophenylcarbonyloxy)-3-undecyl-1,4-benzoquinone]: on Pancreatic Lipase, it took 16.7 µM to reach half-maximal inhibition (IC50), the inhibition at 100 µM was 100% and the inhibition at 200 µM came to 100%.
`CCCCCCCCCCCC1=C(OC(=O)c2ccc(F)cc2)C(=O)C=C(OC(=O)c2ccc(F)cc2)C1=O` [Structure #16, 2,5-bis-(4-fluorophenylcarbonyloxy)-3-undecyl-1,4-benzoquinone]: at Pancreatic Lipase, 72.8 µM corresponded to half-maximal inhibition (IC50), 100 µM produced 89.5% inhibition and the inhibition at 200 µM worked out at 100%.
With `CCCCCCCCCCCC1=C(OC(=O)c2ccc(Cl)cc2)C(=O)C=C(OC(=O)c2ccc(Cl)cc2)C1=O` (as salt: Na) [Structure #9, 2,5-bis-(4-chlorophenylcarbonyloxy)-3-undecyl-1,4-benzoquinone], the melting point fell in the range of 110.2 to 112 °C.
Consider `CCCCCCCCCCCC1=C(OC(=O)c2cccc(OC)c2)C(=O)C=C(OC(=O)c2cccc(OC)c2)C1=O` (as salt: Na) [Structure #17, 2,5-bis-(3-methoxyphenylcarbonyloxy)-3-undecyl-1,4-benzoquinone], for which the melting point lay within 77.1 to 78.6 °C.
At Pancreatic Lipase, `CCCCCCCCCCCC1=C(OC(=O)c2ccc(Cl)cc2)C(=O)C=C(OC(=O)c2ccc(Cl)cc2)C1=O` [Structure #9, 2,5-bis-(4-chlorophenylcarbonyloxy)-3-undecyl-1,4-benzoquinone] showed an IC50 of 22.8 µM, an inhibition at 100 µM of 98.4% and an inhibition at 200 µM of 100%.
At Pancreatic Lipase, `CCCCCCCCCCCC1=C(OC(=O)c2ccc(C(C)(C)C)cc2)C(=O)C=C(OC(=O)c2ccc(C(C)(C)C)cc2)C1=O` [Structure #3, 2,5-bis-(4-tert-butylphenylcarbonyloxy)-3-undecyl-1,4-benzoquinone] returned an IC50 of under 6.25 µM, an inhibition at 100 µM of 99.5% and an inhibition at 200 µM of 99.2%.
Turning to `CCCCCCCCCCCC1=C(OC(=O)c2ccccc2Cl)C(=O)C=C(OC(=O)c2ccccc2Cl)C1=O` [Structure #8, 2,5-bis-(2-chlorophenylcarbonyloxy)-3-undecyl-1,4-benzoquinone], at Pancreatic Lipase, the 50% inhibitory concentration (IC50) was found to be 20.6 µM, 100 µM produced 100% inhibition and at 200 µM the inhibition was 100%.
At Pancreatic Lipase, `CCCCCCCCCCCC1=C(OC(=O)c2cccc(C)c2)C(=O)C=C(OC(=O)c2cccc(C)c2)C1=O` [Structure #13, 2,5-bis-(3-methylphenylcarbonyloxy)-3-undecyl-1,4-benzoquinone] displayed an IC50 of 44.7 µM, an inhibition at 100 µM of 100% and an inhibition at 200 µM of 100%.
`CCCCCCCCCCCC1=C(OC(=O)c2cccc(Br)c2)C(=O)C=C(OC(=O)c2cccc(Br)c2)C1=O` [Structure #6, 2,5-bis-(3-bromophenylcarbonyloxy)-3-undecyl-1,4-benzoquinone]: at Pancreatic Lipase, the IC50 is 13.5 µM, at 100 µM the inhibition was 100% and the inhibition at 200 µM came to 100%.
At Pancreatic Lipase, `CCCCCCCCCCCC1=C(OC(=O)c2ccccc2)C(=O)C=C(OC(=O)c2ccccc2)C1=O` [Structure #15, 2,5-bis-(phenylcarbonyloxy)-3-undecyl-1,4-benzoquinone] yielded an IC50 of 55.6 µM, an inhibition at 100 µM of 100% and an inhibition at 200 µM of 100%.
As for `CCCCCCCCCCCC1=C(OC(=O)c2cccc(OC)c2)C(=O)C=C(OC(=O)c2cccc(OC)c2)C1=O` [Structure #17, 2,5-bis-(3-methoxyphenylcarbonyloxy)-3-undecyl-1,4-benzoquinone], at Pancreatic Lipase, 81.9 µM corresponded to half-maximal inhibition (IC50), at 100 µM the inhibition was 78.3% and 200 µM produced 96.5% inhibition.
On Pancreatic Lipase, `CCCCCCCCCCCC1=C(OC(=O)c2ccccc2Br)C(=O)C=C(OC(=O)c2ccccc2Br)C1=O` [Structure #5, 2,5-bis-(2-bromophenylcarbonyloxy)-3-undecyl-1,4-benzoquinone] registered a half-inhibitory concentration (IC50) of 11 µM, an inhibition at 100 µM of 100% and an inhibition at 200 µM of 100%.
`CCCCCCCCCCCC1=C(OC(=O)c2ccc(OC)cc2)C(=O)C=C(OC(=O)c2ccc(OC)cc2)C1=O` [Structure #18, 2,5-bis-(4-methoxyphenylcarbonyloxy)-3-undecyl-1,4-benzoquinone]: on Pancreatic Lipase, the midpoint of inhibition, the IC50, lay at 94.2 µM; at 100 µM the inhibition was 55.6%; the inhibition at 200 µM was determined as 94.1%.

As a reminder, the IC50 is the concentration that inhibits the measured activity by half. Lower therefore signals greater potency. What is called inhibition is the relative decrease from the control value, in per cent. What is called melting point is the temperature, or range, at which the solid turns liquid.
